Kd data for 24 compounds are collected here from ChEMBL document CHEMBL3991601, “The target landscape of clinical kinase drugs” (Science, 2017).

pKd: −log10 of the molar value. Active and inactive are the calls of the source.

The target in assay [1] is T1, Interleukin-1 receptor-associated kinase 3 (Homo sapiens, UniProt Q9Y616).
T1 sequence (Q9Y616 whole entry): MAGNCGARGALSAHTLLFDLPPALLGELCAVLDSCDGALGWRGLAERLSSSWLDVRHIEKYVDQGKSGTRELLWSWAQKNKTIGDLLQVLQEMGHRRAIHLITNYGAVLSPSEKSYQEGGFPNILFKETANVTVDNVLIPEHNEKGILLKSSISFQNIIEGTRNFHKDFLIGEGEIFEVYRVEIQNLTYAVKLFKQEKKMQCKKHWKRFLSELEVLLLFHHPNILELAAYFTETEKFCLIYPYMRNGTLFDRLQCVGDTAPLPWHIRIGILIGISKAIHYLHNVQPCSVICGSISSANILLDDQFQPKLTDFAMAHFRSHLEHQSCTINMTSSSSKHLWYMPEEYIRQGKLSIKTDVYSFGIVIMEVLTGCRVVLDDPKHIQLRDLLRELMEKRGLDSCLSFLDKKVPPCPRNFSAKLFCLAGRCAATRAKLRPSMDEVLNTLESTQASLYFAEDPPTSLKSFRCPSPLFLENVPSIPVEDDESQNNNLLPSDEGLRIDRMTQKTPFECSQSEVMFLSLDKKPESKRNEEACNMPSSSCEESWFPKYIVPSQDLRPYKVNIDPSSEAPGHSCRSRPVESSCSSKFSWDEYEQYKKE

For assay [2], the target named is T2, Mitogen-activated protein kinase kinase kinase kinase 3 (Homo sapiens, UniProt Q8IVH8).
T2 sequence (Q8IVH8 whole entry): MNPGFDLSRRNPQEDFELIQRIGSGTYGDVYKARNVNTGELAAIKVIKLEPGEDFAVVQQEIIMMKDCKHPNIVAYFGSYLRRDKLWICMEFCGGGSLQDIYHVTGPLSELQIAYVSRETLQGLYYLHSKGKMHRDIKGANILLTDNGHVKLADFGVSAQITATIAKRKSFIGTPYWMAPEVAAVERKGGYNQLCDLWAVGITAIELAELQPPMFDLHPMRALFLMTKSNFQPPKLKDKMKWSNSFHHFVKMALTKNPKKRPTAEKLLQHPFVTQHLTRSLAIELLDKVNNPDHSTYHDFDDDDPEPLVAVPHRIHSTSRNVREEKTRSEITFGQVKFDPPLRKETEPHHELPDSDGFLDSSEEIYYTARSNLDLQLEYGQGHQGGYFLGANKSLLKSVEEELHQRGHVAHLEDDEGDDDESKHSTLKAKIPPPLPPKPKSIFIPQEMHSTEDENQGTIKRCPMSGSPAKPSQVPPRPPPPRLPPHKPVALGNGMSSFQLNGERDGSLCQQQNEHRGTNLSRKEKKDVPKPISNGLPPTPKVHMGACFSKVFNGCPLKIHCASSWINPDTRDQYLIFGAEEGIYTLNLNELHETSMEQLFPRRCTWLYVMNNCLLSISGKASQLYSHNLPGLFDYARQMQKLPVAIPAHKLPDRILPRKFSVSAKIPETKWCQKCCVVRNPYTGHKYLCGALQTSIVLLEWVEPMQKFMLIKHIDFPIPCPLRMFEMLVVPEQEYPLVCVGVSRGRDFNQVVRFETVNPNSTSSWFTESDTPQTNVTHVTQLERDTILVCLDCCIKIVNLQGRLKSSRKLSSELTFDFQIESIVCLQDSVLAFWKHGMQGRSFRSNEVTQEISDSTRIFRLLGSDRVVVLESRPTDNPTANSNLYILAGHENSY

The target in assay [3] is T3, Serine/threonine-protein kinase Nek1 (Homo sapiens, UniProt Q96PY6).
T3 sequence (Q96PY6 whole entry): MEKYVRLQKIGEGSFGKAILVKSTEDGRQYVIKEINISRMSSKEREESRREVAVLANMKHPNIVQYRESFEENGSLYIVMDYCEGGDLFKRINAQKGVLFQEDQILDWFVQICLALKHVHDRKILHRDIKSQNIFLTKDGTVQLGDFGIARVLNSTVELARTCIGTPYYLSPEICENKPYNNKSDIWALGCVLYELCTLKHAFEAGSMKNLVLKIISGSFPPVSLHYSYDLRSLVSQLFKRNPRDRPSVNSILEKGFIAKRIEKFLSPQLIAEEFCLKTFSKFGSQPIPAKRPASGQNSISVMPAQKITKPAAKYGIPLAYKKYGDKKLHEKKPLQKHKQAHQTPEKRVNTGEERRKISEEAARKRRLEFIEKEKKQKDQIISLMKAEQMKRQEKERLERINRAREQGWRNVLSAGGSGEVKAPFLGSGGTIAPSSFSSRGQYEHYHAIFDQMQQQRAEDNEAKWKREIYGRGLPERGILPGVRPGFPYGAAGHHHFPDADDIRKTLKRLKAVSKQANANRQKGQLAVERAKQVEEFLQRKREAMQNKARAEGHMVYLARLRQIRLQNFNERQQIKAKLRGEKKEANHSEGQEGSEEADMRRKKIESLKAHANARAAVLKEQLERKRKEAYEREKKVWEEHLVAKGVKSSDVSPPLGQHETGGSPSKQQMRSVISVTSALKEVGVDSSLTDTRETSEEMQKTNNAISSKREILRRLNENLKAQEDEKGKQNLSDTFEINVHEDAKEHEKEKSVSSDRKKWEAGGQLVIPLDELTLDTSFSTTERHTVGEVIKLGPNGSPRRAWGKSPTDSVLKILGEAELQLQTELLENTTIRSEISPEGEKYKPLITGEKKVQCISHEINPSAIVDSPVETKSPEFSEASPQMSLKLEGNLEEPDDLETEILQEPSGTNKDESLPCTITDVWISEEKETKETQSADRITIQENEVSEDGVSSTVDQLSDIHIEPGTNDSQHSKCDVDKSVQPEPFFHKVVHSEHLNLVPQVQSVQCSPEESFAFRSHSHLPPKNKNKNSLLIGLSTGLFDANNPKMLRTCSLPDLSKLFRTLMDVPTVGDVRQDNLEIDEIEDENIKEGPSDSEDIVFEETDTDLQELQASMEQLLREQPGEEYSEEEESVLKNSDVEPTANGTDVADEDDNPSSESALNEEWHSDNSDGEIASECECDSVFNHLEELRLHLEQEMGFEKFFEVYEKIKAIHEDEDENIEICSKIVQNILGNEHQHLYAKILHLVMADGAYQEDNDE

The target in assay [4] is T4, Ras-related protein Rab-10 (Homo sapiens, UniProt P61026).
T4 sequence (P61026 whole entry): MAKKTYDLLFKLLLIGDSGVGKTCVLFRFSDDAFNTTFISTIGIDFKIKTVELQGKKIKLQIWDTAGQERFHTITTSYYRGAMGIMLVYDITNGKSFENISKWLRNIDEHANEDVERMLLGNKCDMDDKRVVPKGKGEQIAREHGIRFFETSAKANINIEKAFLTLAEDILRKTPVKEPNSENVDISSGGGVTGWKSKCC
Note: in the data inactive means no Kd found up to 30 µM.

Take `C[C@@H](Oc1cc(C(=O)Nc2ccc(C(=O)N3CCN(C)CC3)cc2)nnc1N)c1c(Cl)ccc(F)c1Cl`: the Kd in assay [1], in assay [2], in assay [3] and in assay [4] was > 30 µM (inactive) throughout.

In the case of `C[C@H]1CNCCCN1S(=O)(=O)c1cccc2cncc(F)c12`, the Kd in assay [1], in assay [3] and in assay [4] was > 30 µM (inactive) each time. For the same compound, the negative-log Kd (pKd) in assay [2] is 5.49.

Take `CC(=O)c1cnc2ccc(-c3cc(Cl)c(O)c(Cl)c3)nc2c1N[C@H]1CC[C@H](CN(C)C)CC1`: the dissociation constant Kd was 0.012 µM (active) in assay [1], > 30 µM (inactive) in assay [2], > 30 µM (inactive) in assay [3] and > 30 µM (inactive) in assay [4].

`CCNC(=O)C#Cc1ccc2c(c1)NC(=O)/C2=C(\Nc1ccc(CN(C)C)cc1)c1ccccc1`: the Kd in assay [1], in assay [2], in assay [3] and in assay [4] was > 30 µM (inactive) throughout.

As for `C=CC(=O)N1CCC[C@H](n2c(=O)n(-c3ccc(Oc4ccccc4)cc3)c3c(N)ncnc32)C1`, the Kd in assay [1], in assay [2], in assay [3] and in assay [4] was > 30 µM (inactive) throughout.

For `Cc1nc2cc(-c3nn(C(C)C)c4ncnc(N)c34)ccc2o1`, the Kd in assay [1], in assay [2], in assay [3] and in assay [4] was > 30 µM (inactive) throughout.

Consider `COCc1c(-c2ccc(NC(=O)Nc3cc(C(F)(F)F)ccc3F)c(F)c2)c2c(N)ncnn2c1CN1CCOCC1`, for which the Kd in assay [1], in assay [2], in assay [3] and in assay [4] was > 30 µM (inactive) in each case.

For the compound `Nc1ncnc2c1c(-c1cccc(OCc3ccccc3)c1)cn2[C@H]1C[C@@H](CN2CCC2)C1` [AEW-541], the Kd in assay [1], in assay [2], in assay [3] and in assay [4] was > 30 µM (inactive) each time.

As for `COc1cc(Nc2ncc3c(n2)-c2ccc(Cl)cc2C(c2c(F)cccc2OC)=NC3)ccc1C(=O)O` [ALISERTIB], the Kd in assay [1], in assay [2] and in assay [3] was > 30 µM (inactive) each time. This compound had a negative logarithm of the Kd (pKd) in assay [4] of 5.87.

Regarding `Cc1nc(NC(=O)N2CCC[C@H]2C(N)=O)sc1-c1ccnc(C(C)(C)C(F)(F)F)c1` [ALPELISIB], the Kd in assay [1], in assay [2], in assay [3] and in assay [4] was > 30 µM (inactive) throughout.

With `Cc1csc(-c2nnc(Nc3ccc(Oc4ncccc4-c4ccnc(N)n4)cc3)c3ccccc23)c1` [AMG-900], the Kd is > 30 µM (inactive) in assay [1], > 30 µM (inactive) in assay [2], 2.38 µM (active) in assay [3] and > 30 µM (inactive) in assay [4].

Turning to `O=C(Nc1c[nH]nc1-c1nc2cc(CN3CCOCC3)ccc2[nH]1)NC1CC1` [AT-9283], the Kd in assay [1], in assay [2], in assay [3] and in assay [4] was > 30 µM (inactive) throughout.

In the case of `C=CC(=O)Nc1cc2c(Nc3ccc(F)c(Cl)c3)ncnc2cc1C#CC(C)(C)N1CCN(C)CC1` [AV-412 FREE BASE], the Kd in assay [1], in assay [2], in assay [3] and in assay [4] was > 30 µM (inactive) throughout.

With `CNC(=O)c1ccccc1Sc1ccc2c(/C=C/c3ccccn3)n[nH]c2c1` [AXITINIB], in assay [4], the Kd is > 30 µM (inactive).

Consider `CC(C)(C)c1nc(-c2cccc(NS(=O)(=O)c3c(F)cccc3F)c2F)c(-c2ccnc(N)n2)s1` [DABRAFENIB], for which the Kd in assay [1], in assay [2] and in assay [4] was > 30 µM (inactive) in each case.

For `Cn1cc(C2=C(c3cn(C4CCN(Cc5ccccn5)CC4)c4ccccc34)C(=O)NC2=O)c2ccccc21` [ENZASTAURIN], the Kd in assay [4] is > 30 µM (inactive).

Take `C[C@@H](Oc1cc(-n2cnc3ccc(CN4CCN(C)CC4)cc32)sc1C(N)=O)c1ccccc1C(F)(F)F` [GSK-461364]: the Kd in assay [4] is > 30 µM (inactive).

In the case of `CCn1cc(-c2ccnc3[nH]c(-c4cccc(CN(C)C)c4)cc23)c(-c2ccc(NC(=O)N(C)C)cc2)n1` [GSK-1070916], the Kd in assay [1], in assay [3] and in assay [4] was > 30 µM (inactive) in each case.

As to `O=C(Nc1cc(C(F)(F)F)cc(C(F)(F)F)c1)c1cc(Cl)ccc1O` [IMD-0354], the Kd in assay [1], in assay [2] and in assay [3] was > 30 µM (inactive) each time.

For the compound `Cc1[nH]c(/C=C2\C(=O)Nc3ccccc32)c(C)c1CCC(=O)O` [ORANTINIB], the Kd in assay [1], in assay [3] and in assay [4] was > 30 µM (inactive) in each case.

For the compound `NC(=O)c1c(OCc2c(F)cc(Br)cc2F)nsc1NC(=O)NCCCCN1CCCC1` [OSI-632], the Kd in assay [1], in assay [3] and in assay [4] was > 30 µM (inactive) each time.

`CCOc1cc2ncc(C#N)c(Nc3ccc(F)c(Cl)c3)c2cc1NC(=O)/C=C/CN(C)C` [PELITINIB]: the Kd in assay [1] was > 30 µM (inactive); in assay [2] it was 0.189 µM (active); in assay [4] it was > 30 µM (inactive).

For the compound `O=C(NOCCO)c1cc(CN2OCCCC2=O)c(F)c(F)c1Nc1ccc(I)cc1F` [RO-4987655], in assay [4], the Kd is > 30 µM (inactive).

For the compound `N#CC[C@H](C1CCCC1)n1cc(-c2ncnc3[nH]ccc23)cn1` [RUXOLITINIB], in assay [4], the Kd is > 30 µM (inactive).

Usually Kd stands for the equilibrium constant for the complex coming apart. A word on the pKd: it is the Kd on a negative log10 scale, so that one unit is a factor of ten. High values mean a low Kd, low ones a high Kd.
